Measurements: patent US10597391B2, “Urea-containing isoxazole derivatives as FXR agonists and methods of use thereof” (Enanta Pharmaceuticals, Inc., priority 2016, dated 2020)
Read-outs that look alike come from different tables or passages of the source.

Biological target: T1, human FXR (NR1H4) (Homo sapiens, UniProt Q96RI1)
T1 sequence (Q96RI1 1-486): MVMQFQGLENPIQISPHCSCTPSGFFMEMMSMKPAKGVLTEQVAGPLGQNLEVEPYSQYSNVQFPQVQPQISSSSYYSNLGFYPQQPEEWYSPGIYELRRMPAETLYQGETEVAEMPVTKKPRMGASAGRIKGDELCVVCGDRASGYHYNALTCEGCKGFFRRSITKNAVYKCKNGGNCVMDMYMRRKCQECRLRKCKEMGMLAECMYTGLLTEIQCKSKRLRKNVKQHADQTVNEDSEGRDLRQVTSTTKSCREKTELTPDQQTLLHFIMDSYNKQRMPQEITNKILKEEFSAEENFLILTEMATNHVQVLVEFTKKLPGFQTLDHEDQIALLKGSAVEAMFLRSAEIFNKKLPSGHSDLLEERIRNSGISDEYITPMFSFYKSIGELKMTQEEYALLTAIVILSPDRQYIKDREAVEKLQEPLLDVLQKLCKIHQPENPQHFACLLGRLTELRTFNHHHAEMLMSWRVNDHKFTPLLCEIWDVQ
Test: Human FXR (NR1H4) Assay: Gal4 promoter driven luciferase reporter transactivation in CHO cells (Indigo Bioscience kit IB00601)
Assay type: cell-based
Details: for Emax: CHO, read-out: Efficacy (%); for EC50: potency range, Human FXR (NR1H4) reporter assay in CHO cells, read-out: EC50
From the text: Human FXR (NR1H4) Assay Determination of a ligand mediated Gal4 promoter driven transactivation to quantify ligand binding mediated activation of FXR. FXR Reporter Assay kit purchased from Indigo Bioscience (Catalogue number: IB00601) to determine the potency and efficacy of compounds that can induce FXR activation. The principle application of this reporter assay system is to quantify functional activity of human FXR. The assay utilizes non-human mammalian cells, CHO (Chinese hamster ovary) cells engineered to express human NR1H4 protein (referred to as FXR). Reporter cells also incorporate the cDNA encoding beetle luciferase which catalyzes the substrates and yields photon emission. Luminescence intensity of the reaction is quantified using a plate-reading luminometer, Envision. Reporter Cells include the luciferase reporter gene functionally linked to an FXR responsive promoter. Thus, quantifying changes in luciferase expression in the treated reporter cells provides a sensitive surrogate measure of the changes in FXR activity. […] The assay is according to the manufacturer's instructions. […] Retrieve Reporter Cells from −80° C. storage. Perform a rapid thaw of the frozen cells by transferring a 10 ml volume of 37° C. cell recovery medium into the tube of frozen cells. […] Retrieve the tube of Reporter Cell Suspension from the water bath. […] Dispense 90 μl of cell suspension into each well of the 96-well Assay Plate. Transfer the plate into 37° C. incubator, allowing the cells adherent to the bottom of the well. Dilute compounds in Dilution Plate (DP), and administrate to cells at Assay Plate (AP). […] Cells were incubated for additional 22 hours before luciferase activities were measured. Thirty minutes before intending to quantify FXR activity, remove Detection Substrate and Detection Buffer from the refrigerator and place them in a low-light area so that they may equilibrate to room temperature. Remove the plate's lid and discard all media contents by ejecting it into an appropriate waste container. Gently tap the inverted plate onto a clean absorbent paper towel to remove residual droplets. Cells will remain tightly adhered to well bottoms. Add 100 μl of luciferase detection reagent to each well of the assay plate. Allow the assay plate to rest at room temperature for at least 5 minutes following the addition of LDR. Set the instrument (Envision) to perform a single 5 second “plate shake” prior to reading the first assay well. Read time may be 0.5 second (500 mSec) per well.

[1] = efficacy normalized to CDCA set as 100%

Row | Compound | Emax [1] [%] | EC50 [nM] | Emax [%]
1 | O=C(NS(=O)(=O)c1ccccc1)c1cccc(NC(=O)N2C3CCC2CC(OCc2c(-c4ccccc4OC(F)(F)F)noc2C2CC2)C3)c1 (centres unmarked) [Example 759] | 205 | > 1000 | –
2 | COC(=O)c1ccc(NC(=O)N2C3CCC2CC(OCc2c(-c4c(Cl)cccc4Cl)noc2C2CC2)C3)c(C2CC2)c1 (centres unmarked) [Example 800] | 54 | 10 to 100 | –
3 | CC(C)Oc1cc(C(=O)O)ccc1NC(=O)N1C2CCC1CC(OCc1c(-c3c(Cl)cccc3Cl)noc1C1CC1)C2 (centres unmarked) [Example 721] | 133 | 10 to 100 | –
4 | CCOC(=O)c1ccc(NC(=O)N2C3CCC2CC(OCc2c(-c4ccccc4OC(F)(F)F)noc2C2CC2)C3)cc1 (centres unmarked) [Example 228] | – | 100 to 1000 | –
5 | CC(C)(C)c1ccc(NC(=O)N2C3CCC2CC(OCc2c(-c4c(Cl)cccc4Cl)noc2C2CC2)C3)cc1 (centres unmarked) [Example 697] | 174 | 100 to 1000 | –
6 | O=C(NC1CCCCC1)N1C2CCC1CC(OCc1c(-c3c(Cl)cccc3Cl)noc1C1CC1)C2 (centres unmarked) [Example 30] | – | 10 to 100 | –
7 | O=C(O)c1ccc2c(c1)CN(C(=O)N1C3CCC1CC(OCc1c(-c4ccccc4OC(F)(F)F)noc1C1CC1)C3)CC2 (centres unmarked) [Example 834] | 102 | 100 to 1000 | –
8 | O=C(O)c1cccc(NC(=O)N2C3CCC2CC(OCc2c(-c4ccccc4OC(F)(F)F)noc2C2CC2)C3)c1F (centres unmarked) [Example 746] | 156 | > 1000 | –
9 | O=C(O)c1ccc(NC(=O)N2C3CCC2CC(OCc2c(-c4c(F)cccc4F)noc2C2CC2)C3)cc1-c1ccccc1 (centres unmarked) [Example 816] | 36 | 10 to 100 | –
10 | O=C(O)c1ccc(NC(=O)N2C3CCC2CC(OCc2c(-c4c(Cl)cccc4Cl)noc2C2CC2)C3)c(OC(F)(F)F)c1 (centres unmarked) [Example 717] | 149 | 100 to 1000 | –
11 | CCOC(=O)c1cccc(NC(=O)N2C3CCC2CC(OCc2c(-c4ccccc4OC(F)(F)F)noc2C2CC2)C3)c1 (centres unmarked) [Example 227] | – | 10 to 100 | –
12 | CN1CC=C(c2cccc(NC(=O)N3C4CCC3CC(OCc3c(-c5c(Cl)cccc5Cl)noc3C3CC3)C4)c2)CC1 (centres unmarked) [Example 715] | 123 | 10 to 100 | –
13 | O=C(O)c1ccc(NC(=O)N2C3CCC2CC(OCc2c(-c4ccccc4OC(F)(F)F)noc2C2CC2)C3)c(F)c1 (centres unmarked) [Example 239] | – | 10 to 100 | –
14 | COC(=O)c1ccc(NC(=O)N2C3CCC2CC(OCc2c(-c4c(Cl)cccc4Cl)noc2C2CC2)C3)c(C(F)(F)F)c1 (centres unmarked) [Example 709] | 119 | 100 to 1000 | –
15 | O=C(NCc1ccccc1)N1C2CCC1CC(OCc1c(-c3c(Cl)cccc3Cl)noc1C1CC1)C2 (centres unmarked) [Example 730] | 252 | < 10 | –
16 | O=C(O)c1ccc(NC(=O)N2C3CCC2CC(OCc2c(-c4ccccc4OC(F)(F)F)noc2C2CC2)C3)nc1 (centres unmarked) [Example 769] | 132 | 100 to 1000 | –
17 | COc1ccc(C(=O)O)cc1NC(=O)N1C2CCC1CC(OCc1c(-c3c(Cl)cccc3Cl)noc1C1CC1)C2 (centres unmarked) [Example 725] | 140 | 100 to 1000 | –
18 | CCOc1cc(C(=O)O)ccc1NC(=O)N1C2CCC1CC(OCc1c(-c3c(F)cccc3F)noc1C1CC1)C2 (centres unmarked) [Example 810] | 64 | 10 to 100 | –
19 | O=C(O)c1ccc2c(c1)CN(C(=O)N1C3CCC1CC(OCc1c(-c4ccccc4OC(F)(F)F)noc1C1CC1)C3)C2 (centres unmarked) [Example 598] | – | 10 to 100 | 105
20 | O=C(NCc1ccccc1-c1ccccc1)N1C2CCC1CC(OCc1c(-c3c(Cl)cccc3Cl)noc1C1CC1)C2 (centres unmarked) [Example 740] | 90 | < 10 | –
21 | O=C(O)c1ccc(NC(=O)N2C3CCC2CC(OCc2c(-c4ccccc4OC(F)(F)F)noc2C2CC2)C3)cc1 (centres unmarked) [Example 230] | – | 10 to 100 | –
22 | O=C(Nc1cccc(-c2ccccc2)c1)N1C2CCC1CC(OCc1c(-c3c(Cl)cccc3Cl)noc1C1CC1)C2 (centres unmarked) [Example 729] | 148 | < 10 | –
23 | CCOC(=O)c1ccc2c(c1)CCCN2C(=O)N1C2CCC1CC(OCc1c(-c3ccccc3OC(F)(F)F)noc1C1CC1)C2 (centres unmarked) [Example 593] | – | > 1000 | 40

Row | Compound | Emax [1] [%] | EC50 [nM] | Emax [%]
24 | CCOC(=O)c1ccc2c(c1)CCN2C(=O)N1C2CCC1CC(OCc1c(-c3ccccc3OC(F)(F)F)noc1C1CC1)C2 (centres unmarked) [Example 591] | – | > 1000 | 166
25 | O=C(O)c1ccc(NC(=O)N2C3CCC2CC(OCc2c(-c4ccccc4C4CC4)noc2C2CC2)C3)c(C(F)(F)F)c1 (centres unmarked) [Example 820] | 13 | 10 to 100 | –
26 | COC(=O)c1cccc(OC)c1NC(=O)N1C2CCC1CC(OCc1c(-c3ccccc3OC(F)(F)F)noc1C1CC1)C2 (centres unmarked) [Example 751] | 26 | 100 to 1000 | –
27 | COC(=O)c1ccc(OC)c(NC(=O)N2C3CCC2CC(OCc2c(-c4ccccc4OC(F)(F)F)noc2C2CC2)C3)c1 (centres unmarked) [Example 749] | 104 | 10 to 100 | –
28 | CN(C)S(=O)(=O)NC(=O)c1cccc(NC(=O)N2C3CCC2CC(OCc2c(-c4c(Cl)cccc4Cl)noc2C2CC2)C3)c1 (centres unmarked) [Example 219] | – | 100 to 1000 | –
29 | CCOc1cc(C(=O)O)ccc1NC(=O)N1C2CCC1CC(OCc1c(-c3ccccc3C(F)(F)F)noc1C1CC1)C2 (centres unmarked) [Example 812] | 102 | 10 to 100 | –
30 | O=C(O)c1ccc(NC(=O)N2C3CCC2CC(OCc2c(-c4c(Cl)cccc4Cl)noc2C2CC2)C3)cc1-c1ccc(C(F)(F)F)nc1 (centres unmarked) [Example 799] | 133 | < 10 | –
31 | O=C(O)c1ccc(NC(=O)N2C3CCC2CC(OCc2c(-c4c(Cl)cccc4Cl)noc2C2CC2)C3)cn1 (centres unmarked) [Example 213] | – | 100 to 1000 | –
32 | O=C(Nc1cccc(-c2nccs2)c1)N1C2CCC1CC(OCc1c(-c3c(Cl)cccc3Cl)noc1C1CC1)C2 (centres unmarked) [Example 737] | 179 | < 10 | –
33 | CCOC(=O)c1ccc2nc(NC(=O)N3C4CCC3CC(OCc3c(-c5c(Cl)cccc5Cl)noc3C3CC3)C4)sc2c1 (centres unmarked) [Example 804] | 90 | 10 to 100 | –
34 | O=C(Nc1cccc(C(F)(F)F)c1)N1C2CCC1CC(NCc1c(-c3ccccc3OC(F)(F)F)noc1C1CC1)C2 (centres unmarked) [Example 121] | – | 10 to 100 | –
35 | O=C(Nc1cccc(C2=CCCCC2)c1)N1C2CCC1CC(OCc1c(-c3c(Cl)cccc3Cl)noc1C1CC1)C2 (centres unmarked) [Example 711] | 157 | < 10 | –
36 | O=C(Nc1cccc(F)c1)N1C2CCC1CC(OCc1c(-c3c(Cl)cccc3Cl)noc1C1CC1)C2 (centres unmarked) [Example 1] | – | < 10 | –
37 | CN(C)C(=O)c1cccc(NC(=O)N2C3CCC2CC(OCc2c(-c4c(Cl)cccc4Cl)noc2C2CC2)C3)c1 (centres unmarked) [Example 215] | – | < 10 | –
38 | COC(=O)c1ccc(F)c(NC(=O)N2C3CCC2CC(OCc2c(-c4c(Cl)cccc4Cl)noc2C2CC2)C3)c1 (centres unmarked) [Example 722] | 115 | < 10 | –
39 | O=C(NS(=O)(=O)c1ccccc1)c1ccc(NC(=O)N2C3CCC2CC(OCc2c(-c4ccccc4OC(F)(F)F)noc2C2CC2)C3)cc1 (centres unmarked) [Example 756] | 205 | 100 to 1000 | –
40 | O=C(O)c1cccc(NC(=O)N2C3CCC2CC(OCc2c(-c4c(Cl)cccc4Cl)noc2C2CC2)C3)c1 (centres unmarked) [Example 183] | – | 100 to 1000 | –
41 | CC(C)(C)c1ccc(S(=O)(=O)NC(=O)c2cccc(NC(=O)N3C4CCC3CC(OCc3c(-c5ccccc5OC(F)(F)F)noc3C3CC3)C4)c2)cc1 (centres unmarked) [Example 263] | – | > 1000 | –
42 | COC(=O)c1ccc(NC(=O)N2C3CCC2CC(OCc2c(-c4c(Cl)cccc4Cl)noc2C2CC2)C3)cc1-c1cnn(C)c1 (centres unmarked) [Example 774] | 102 | < 10 | –
43 | CC1(S(=O)(=O)NC(=O)c2cnc3ccc(NC(=O)N4C5CCC4CC(OCc4c(-c6c(Cl)cccc6Cl)noc4C4CC4)C5)cc3c2)CC1 (centres unmarked) [Example 791] | 11 | 100 to 1000 | –
44 | O=C(Nc1ccccc1F)N1C2CCC1CC(OCc1c(-c3c(Cl)cccc3Cl)noc1C1CC1)C2 (centres unmarked) [Example 7] | – | 10 to 100 | –
45 | COc1ccc(-c2cc(NC(=O)N3C4CCC3CC(OCc3c(-c5c(Cl)cccc5Cl)noc3C3CC3)C4)ccc2C(=O)O)cn1 (centres unmarked) [Example 787] | 97 | < 10 | –
